Test results as given in patent US12600728B2, “Interleukin-17 inhibitors” (priority 2020, dated 2026).
Where two headings read alike, the source gives them in different places.

Columns and labels:
[1] = target: recombinant human IL-17AA (Homo sapiens, UniProt Q16552); experiment: IL-6 release from NHDF cells, IL-17AA plus TNF-α stimulation; type: cell-based; conditions: 24 hours, IL-6 by ELISA
How it was run: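 IL-17-specific IL-6 release from NHDF cells adhered overnight; compounds pre-incubated 30 min at room temperature with human IL-17AA plus TNF-α, then 24 h on cells at 37° C. Final DMSO 0.1% or plasma 20%; IL-6 by ELISA (450 nm). TNF-α-only IL-6 subtracted before IC50 fit.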

[2] = target: biotinylated human IL-17A / AF647-labeled human IL-17RA (Homo sapiens, UniProt Q16552); experiment: Human IL-17A×IL-17RA TR-FRET assay; type: binding
biotinylated human IL-17A / AF647-labeled human IL-17RA, sequence (Q16552 24-155): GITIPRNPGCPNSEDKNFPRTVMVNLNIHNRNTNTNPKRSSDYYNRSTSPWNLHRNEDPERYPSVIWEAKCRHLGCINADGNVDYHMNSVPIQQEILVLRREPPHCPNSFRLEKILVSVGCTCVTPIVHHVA
How it was run: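 Compounds tested in duplicate at each concentration; neutral controls contain all components with DMSO in place of compound.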

[3] = NHDF cells, IL-17AA 30 pM + TNF-α 6 pM, read-out: IL17AA + TNF IC50 IL-6
[4] = TR-FRET, 5 nM IL-17A, 30 nM IL-17RA, read-out: IL17AA FRET/ IL17Rawt IC50
[5] = IL17AA + TNF IC50 IL-6, NHDF cells, IL-17AA 30 pM + TNF-α 6 pM
[6] = IL17AA FRET/ IL17Rawt IC50, TR-FRET, 5 nM IL-17A, 30 nM IL-17RA
[7] = NHDF cells, IL-17AA 30 pM plus TNF-α 6 pM, read-out: IL17AA + TNF IC50 IL-6
[8] = TR-FRET, biotinylated human IL-17A 5 nM, AF647-labeled human IL-17RA 30 nM, read-out: IL17AA FRET/ IL17Rawt IC50

recombinant human IL-17AA, sequence (Q16552 24-155): as above

Cc1cc[n+]([O-])c(C)c1-c1ccc(NC(=O)[C@@H](NC(=O)c2conc2C)C2CCC(F)(F)CC2)cc1 [Example 162, (S)-3-(4-(2-(4,4-difluorocyclohexyl)-2-(3-methylisoxazole-4-carboxamido)acetamido)phenyl)-2,4-dimethylpyridine 1-oxide]
IC50 [1, 3]: 44 nM
IC50 [2, 4]: 186 nM

CCn1nccc1C(=O)N[C@H](C(=O)Nc1ccc(-c2c(C)cc[n+]([O-])c2C)cc1)C1CCC(F)(F)CC1 [Example 159, (S)-3-(4-(2-(4,4-difluorocyclohexyl)-2-(1-ethyl-1H-pyrazole-5-carboxamido)acetamido)phenyl)-2,4-dimethylpyridine 1-oxide]
IC50 [1, 5]: 31 nM
IC50 [2, 6]: 100 nM

Cc1cc[n+]([O-])c(C)c1-c1ccc(NC(=O)[C@@H](NC(=O)c2ccnn2C(C)C)C(c2ccccc2)c2ccccc2)cc1 [Example 68, (S)-3-(4-(2-(1-isopropyl-1H-pyrazole-5-carboxamido)-3,3-diphenylpropanamido)phenyl)-2,4-dimethylpyridine 1-oxide]
IC50 [1, 7]: 16 nM
IC50 [2, 8]: 76 nM

Cc1c(-c2ccc(NC(=O)[C@@H](NC(=O)c3ccc4n3CCN(C)C4)C3CCCCC3)cc2F)ccc[n+]1[O-] [Example 126, (S)-3-(4-(2-cyclohexyl-2-(2-methyl-1,2,3,4-tetrahydropyrrolo[1,2-a]pyrazine-6-carboxamido)acetamido)-2-fluorophenyl)-2-methylpyridine 1-oxide]
IC50 [1, 7]: 62 nM
IC50 [2, 8]: 228 nM

Cc1cc[n+]([O-])c(C)c1-c1ccc(NC(=O)[C@H](Cc2ccccc2)NC(=O)c2ccnn2C)cc1 [Example 75, (S)-2,4-dimethyl-3-(4-(2-(1-methyl-1H-pyrazole-5-carboxamido)-3-phenylpropanamido)phenyl)pyridine 1-oxide]
IC50 [1, 7]: > 10000 nM
IC50 [2, 8]: 2640 nM

Cc1ccnc(C)c1-c1ccc(NC(=O)[C@@H](NC(=O)c2ccnn2C)[C@H]2CC[C@H](C)CC2)cc1 [compound 138, N-((S)-2-((4-(2,4-dimethylpyridin-3-yl)phenyl)amino)-1-((1r,4S)-4-methylcyclohexyl)-2-oxoethyl)-1-methyl-1H-pyrazole-5-carboxamide, reference compound]
IC50 ([1]; NHDF cells, IL-17AA 30 pM + TNF-α 6 pM, reference examples (pyridines), read-out: IL 17AA + TNF IC50 IL-6): 55 nM
IC50 ([2]; TR-FRET, 5 nM IL-17A, 30 nM IL-17RA, reference examples (pyridines), read-out: IL17AA FRET/ IL17RAwt IC50): 552 nM

CCc1nocc1C(=O)NC(C(=O)Nc1ccc(-c2c(C)cc[n+]([O-])c2C)cc1)C1CCC(C(F)(F)F)CC1 [Example 8, 3-(4-((S)-2-(3-ethylisoxazole-4-carboxamido)-2-((1r,4S)-4-(trifluoromethyl)cyclohexyl)acetamido)phenyl)-2,4-dimethylpyridine 1-oxide]
IC50 [1, 7]: 4 nM
IC50 [2, 8]: 41 nM

Cc1cc[n+]([O-])c(C)c1-c1ccc(NC(=O)[C@@H](NC(=O)c2ccnn2C(C)C)C2CCCCCC2)cc1 [Example 40, (S)-3-(4-(2-cycloheptyl-2-(1-isopropyl-1H-pyrazole-5-carboxamido)acetamido)phenyl)-2,4-dimethylpyridine 1-oxide]
IC50 [1, 7]: 2 nM
IC50 [2, 8]: 25 nM

COCc1nocc1C(=O)NC(C(=O)Nc1ccc(-c2c(C)cc[n+]([O-])c2C)cc1)C1CCC(C(F)(F)F)CC1 [Example 25, 3-(4-((S)-2-(3-(methoxymethyl)isoxazole-4-carboxamido)-2-((1r,4S)-4-(trifluoromethyl)cyclohexyl)acetamido)phenyl)-2,4-dimethylpyridine 1-oxide]
IC50 [1, 7]: 69 nM
IC50 [2, 8]: 178 nM

Cc1cc[n+]([O-])c(C)c1-c1ccc(NC(=O)[C@@H](NC(=O)c2ccnn2C)C2CCCCC2)cc1F [Example 95, 3-(4-((S)-2-cyclohexyl-2-(1-methyl-1H-pyrazole-5-carboxamido)acetamido)-2-fluorophenyl)-2,4-dimethylpyridine 1-oxide]
IC50 [1, 7]: 19 nM
IC50 [2, 8]: 125 nM

Cc1cc[n+]([O-])c(C)c1-c1ccc(NC(=O)[C@@H](NC(=O)c2ccc3n2CCNC3)C2CCCCCC2)cc1 [Example 202, (S)-3-(4-(2-cycloheptyl-2-(1,2,3,4-tetrahydropyrrolo[1,2-a]pyrazine-6-carboxamido)acetamido)phenyl)-2,4-dimethylpyridine 1-oxide]
IC50 [1, 3]: 73 nM
IC50 [2, 4]: 257 nM

Cc1cc[n+]([O-])c(C)c1-c1ccc(NC(=O)C(NC(=O)c2conc2C)C2CCC(C(F)(F)F)CC2)cc1 [Example 23, 2,4-dimethyl-3-(4-((S)-2-(3-methylisoxazole-4-carboxamido)-2-((1r,4S)-4-(trifluoromethyl)cyclohexyl)acetamido)phenyl)pyridine 1-oxide]
IC50 [1, 7]: 6 nM
IC50 [2, 8]: 60 nM

Cc1cc[n+]([O-])c(C)c1-c1ccc(NC(=O)C(NC(=O)c2ccnn2C(C)C)C2CCCC(F)(F)C2)cc1 (centres unmarked) [Example 161, 3-(4-(2-(3,3-difluorocyclohexyl)-2-(1-isopropyl-1H-pyrazole-5-carboxamido)acetamido)phenyl)-2,4-dimethylpyridine 1-oxide]
IC50 [1, 3]: 20.5 nM
IC50 [2, 4]: 130 nM

Cc1cc[n+]([O-])c(C)c1-c1ccc(NC(=O)[C@@H](NC(=O)c2ccnn2C)[C@H]2CC=C(F)CC2)cc1 (single isomer, unassigned) [Example 12a, 3-(4-((S)-2-((R)-4-fluorocyclohex-3-en-1-yl)-2-(1-methyl-1H-pyrazole-5-carboxamido)acetamido)phenyl)-2,4-dimethylpyridine 1-oxide or 3-(4-((S)-2-((S)-4-fluorocyclohex-3-en-1-yl)-2-(1-methyl-1H-pyrazole-5-carboxamido)acetamido)phenyl)-2,4-dimethylpyridine 1-oxide]
IC50 [1, 7]: 17 nM
IC50 [2, 8]: 112 nM

CCc1nocc1C(=O)N[C@H](C(=O)Nc1ccc(-c2c(C)cc[n+]([O-])c2C)cc1)[C@@H]1CC=C(F)CC1 [Example 28, 3-(4-((S)-2-(3-ethylisoxazole-4-carboxamido)-2-((S)-4-fluorocyclohex-3-en-1-yl)acetamido)phenyl)-2,4-dimethylpyridine 1-oxide]
IC50 [1, 7]: 22 nM
IC50 [2, 8]: 20 nM

Cc1cc(-c2ccc(NC(=O)[C@@H](NC(=O)c3ccnn3C)C3CCC(F)(F)CC3)cc2)c(C)[n+]([O-])c1 [Example 171, (S)-3-(4-(2-(4,4-difluorocyclohexyl)-2-(1-methyl-1H-pyrazole-5-carboxamido)acetamido)phenyl)-2,5-dimethylpyridine 1-oxide]
IC50 [1, 5]: 398 nM
IC50 [2, 6]: 465 nM

Cc1c(-c2ccc(NC(=O)C(NC(=O)c3ccnn3C)C3CCC(C)CC3)cc2)c(Cl)cc[n+]1[O-] [Example 46, 4-chloro-2-methyl-3-(4-((S)-2-(1-methyl-1H-pyrazole-5-carboxamido)-2-((1r,4S)-4-methylcyclohexyl)acetamido)phenyl)pyridine 1-oxide]
IC50 [1, 7]: 4 nM
IC50 [2, 8]: 18 nM

Cc1c(-c2ccc(NC(=O)[C@@H](NC(=O)c3ccnn3C)C3CCCCC3)cc2)c(C(C)C)cc[n+]1[O-] [Example 224, (S)-3-(4-(2-cyclohexyl-2-(1-methyl-1H-pyrazole-5-carboxamido)acetamido)phenyl)-4-isopropyl-2-methylpyridine 1-oxide]
IC50 [1, 3]: 108 nM
IC50 [2, 4]: 2190 nM

Cc1c(-c2cc(F)c(NC(=O)[C@@H](NC(=O)c3ccnn3C)C3CCCCC3)cc2F)c(Cl)cc[n+]1[O-] [Example 63, 4-chloro-3-(4-((S)-2-cyclohexyl-2-(1-methyl-1H-pyrazole-5-carboxamido)acetamido)-2,5-difluorophenyl)-2-methylpyridine 1-oxide]
IC50 [1, 7]: 57 nM
IC50 [2, 8]: 247 nM
